# Reference: patent US20240140931A1, “TRICYCLIC COMPOUNDS AND USES THEREOF” (HUTCHMED LIMITED, priority 2021, published 2024)
# pIC50: −log10 of the molar value.
# Legend:
# [1] = molecular target: Human full-length SHP2 recombinant protein (Homo sapiens (Human), UniProt Q06124); assay: Assay of full-length SHP2 phosphatase activity; format: biochemical; details: DiFMUP substrate, with activating peptide
# Description: Example 2 Assay of Full-Length SHP2 Phosphatase Activity
# 1. Reagents and Materials • Human full-length SHP2 recombinant protein: BPS Bioscience, Cat #79018; • SHP2 substrate DiFMUP (1 mM): BPS Bioscience, Cat #79769; • SHP2 activating peptide (100 μM): BPS Bioscience, Cat #79319-2; • DTT: Merck, Cat #DTT-RO; • 384-well plate: Corning, Cat #3575; • 96-well plate: Thermo Fisher Scientific, Cat #249952; • Instrument: EnVision 2104, PerkinElmer.
# 2. Preparation of Reaction Solutions
# The test compound was dissolved in DMSO and diluted with DMSO to 100.0 μM, and the compound was further 3-fold diluted with DMSO to: 100.00, 33.33, 11.11, 3.70, 1.23, 0.41, 0.14 and 0.05 μM.
# 3. Experimental Steps • To the corresponding wells of the 384-well plate was added 2.5 μL of 4× test compound or 2.5 μL of 4% DMSO solution, and centrifugation was carried out at 1000 rpm for 30 seconds. • To the test compound well and positive control well was added 2.5 μL of 4× mixed solution of SHP2 enzyme/activating peptide while to the negative control well was added 2.5 μL of 1× enzymatic reaction buffer; centrifugation was carried out at 1000 rpm for 30 seconds and incubation was carried out at room temperature for 30 minutes. • To each well was added 5 μL of 2×DiFMUP substrate to initiate the enzymatic reaction, then the plate was transiently oscillated and centrifuged at 1000 rpm for 30 seconds, and the 384-well plate was sealed with a sealing membrane and incubated at 25° C. on a low-speed shaker (100 rpm) in the dark for 60 minutes. • The fluorescence value (relative fluorescence units, RFU) of each well was detected on EnVision2104 (excitation: 355 nm, emission: 460 nm).
# wherein • the RFU of compound well refers to the fluorescence reading at 460 nm of the well containing the test compounds; • the RFU of negative control well refers to the fluorescence reading at 460 nm of the background well containing 1% DMSO and the enzymatic reaction buffer; • the RFU of positive control well refers to the fluorescence reading at 460 nm of the well containing 1% DMSO and the mixed solution of SHP2 enzyme/activating peptide.
# (§1) IC50 values were calculated following formula 205: y=A+((B−A)/(1+((C/X)^D))), by using the XL-Fit 5.0 software.
# [2] = test system: pERK1/2 (Thr202/Tyr204) in Miapaca2 cells; assay: Assay of intracellular pERK1/2 (Thr202/Tyr204) phosphorylation; format: cell-based; details: pERK1/2 (Thr202/Tyr204) HTRF
# Description: Example 3 Assay of Intracellular pERK1/2 (Thr202/Tyr204) Phosphorylation
# 1. Reagents and Materials • pERK1/2 (Thr202/Tyr204) HTRF kit: Cisbio, Cat #64ERKPEH; • Cell line: Miapaca2, ATCC, CRL-1420; • OptiPlate™-384-well plate: PerkinElmer, Cat #6007299; • 96-well plate: Corning, Cat #353072; • Instrument: EnVision2104, PerkinElmer.
# 2. Preparation of Reaction Solutions • The test compound was dissolved in DMSO and diluted with DMSO to 600.0 μM, and the compound was further 3-fold diluted with DMSO to: 600.0, 200.0, 66.7, 22.2, 7.4, 2.5, 0.82 and 0.27 μM. Then 10 μL of the compound at different dilution concentrations was added to 190 μL of a DMEM medium to prepare a 10× test compound, wherein DMSO was at the concentration of 5% (DMSO was at the final concentration of 0.5%). • 1× cell lysis buffer: 4× cell lysis stock solution (provided by the kit) was diluted 4-fold with deionized water, and then 1% 100× blocking stock solution (provided by the kit) was added thereto. • pERK1/2 detection solution (prepared just before use): the pERK1/2 d2 antibody (provided by the kit) and pERK1/2 Cryptate antibody (provided by the kit) were diluted with the detection solution (provided by the kit) at a ratio of 1:1:38.
# 3. Experimental Steps • Miapaca2 cells were inoculated into a 96-well plate at a density of 10000 cells/well at 90 μL/well and cultured in a cell incubator at 5% CO2 and 37° C. overnight. • 10 μL of 10× test compound was added to the 90 μL cell culture 96-well plate; to the cell positive control well was added 10 μL of 5% DMSO culture solution; and the plate was cultured in a cell incubator at 5% CO2 and 37° C. for 2 hours. • The medium in the 96-well plate was removed; 50 μL of 1× cell lysis buffer was added to each well; the plate was placed in a microplate shaker; and lysis under shaking was carried out at 900 rpm at room temperature for 1 hour. • 16 μL of the lysis buffer in the 96-well plate was taken and transferred to a 384-well plate, and centrifugation was carried out at 1000 rpm for 30 seconds; then 4 μL of pERK1/2 detection solution was added to each well and centrifugation was carried out at 1000 rpm for 30 seconds; and the 384-well plate was sealed with a sealing membrane and incubated at 25° C. on a low-speed shaker (100 rpm) in the dark for 2 hours. • The fluorescence value (relative fluorescence units, RFU) of each well was detected on EnVision2104 (emission 1: 665 nm, emission 2: 615 nm).
# wherein • the fluorescence ratio of compound well refers to the fluorescence ratio of the well containing the test compounds; • the fluorescence ratio of negative control well refers to the fluorescence ratio of the background containing the cell lysis buffer and no Miapaca2 cells; • the fluorescence ratio of positive control well refers to the fluorescence ratio of the well containing 0.5% DMSO and Miapaca2 cells.
# as §1
Structure (SMILES),pIC50 [1],"pIC50 ([2]; Homo sapiens, MIA PaCa-2, 2 h)",pIC50 ([2]; 2 hours)
CN(C)CC#Cc1ccc2c(c1)[C@@H](N)C1(CCN(c3ncc(Sc4ccnc(N)c4Cl)c4nccn34)CC1)C2 [Compound 71],9.00,7.66,–
CC#Cc1ccc2c(c1)[C@@H](N)C1(CCN(c3cnc(Sc4ccnc(N)c4Cl)nn3)CC1)C2 [Compound 234],8.55,6.82,–
Cc1nc(N2CCC3(CC2)Cc2ccc(Nc4cnn(C)c4)cc2[C@H]3N)cc(=O)n1-c1cccc(Cl)c1Cl [Compound 63],8.40,6.75,–
"C#Cc1ccc2c(c1)[C@@H](N)C1(CCN(c3cc(=O)n(-c4ccccc4Cl)c(C)n3)CC1)C2 (single isomer, unassigned) [Compound 56]",8.70,–,7.07
"C#Cc1ccc2c(c1)[C@@H](N)C1(CCN(c3cc(=O)n(-c4ccc(F)c(F)c4Cl)c(C)n3)CC1)C2 (atropisomer, axis not shown) [Compound 113]",8.70,–,7.85
C#Cc1ccc2c(c1)[C@@H](N)C1(CCN(c3ncc(N4CCCc5ncccc54)c(=O)n3C)CC1)C2 [Compound 287],7.92,6.85,–
C#Cc1ccc2c(c1)[C@@H](N)C1(CCN(c3cc(=O)n(-c4ccccc4SC)c(C)n3)CC1)C2 [Compound 133],7.54,6.83,–
C#Cc1ccc2c(c1)CC1(CCN(c3ncc(Sc4ccnc(NCCOC)c4Cl)c4nccn34)CC1)[C@@H]2N [Compound 3],8.05,7.09,–
"C#Cc1ccc2c(c1)[C@@H](N)C1(CCN(c3cc(=O)n(-c4ccc(F)c(OC)c4F)c(C)n3)CC1)C2 (atropisomer, axis not shown) [Compound 88]",9.10,–,7.59
"C#Cc1ccc2c(c1)[C@@H](N)C1(CCN(c3nc(C)n(-c4cccc(Cl)c4Cl)c(=O)c3C)CC1)C2 (atropisomer, axis not shown) [Compound 49]",8.52,–,7.74
C#Cc1ccc2c(c1)[C@@H](N)C1(CCN(c3cc(=O)n(-c4cccc(OCC)c4Cl)c(C)n3)CC1)C2 [Compound 62],8.30,6.98,–
"C#Cc1ccc2c(c1)[C@@H](N)C1(CCN(c3cc(=O)n(-c4ccc(F)c(Cl)c4Cl)c(C)n3)CC1)C2 (atropisomer, axis not shown) [Compound 109]",6.93,–,6.59
"C#Cc1ccc2c(c1)[C@@H](N)C1(CCN(c3cc(=O)n(-c4ccccc4Cl)c(C)n3)CC1)C2 [Compound 42, (S)-6-(1-amino-6-ethynyl-1,3-dihydrospiro[indene-2,4′-piperidin]-1′-yl)-3-(2-chlorophenyl)-2-methylpyrimidin-4(3H)-one]",8.22,6.88,–
"Cc1c(N2CCC3(CC2)Cc2ccc(C#CCN(C)C)cc2[C@H]3N)nc(C)n(-c2cccc(Cl)c2Cl)c1=O (atropisomer, axis not shown) [Compound 50]",7.82,–,6.50
CC#Cc1ccc2c(c1)[C@@H](N)C1(CCN(c3cnc(Sc4ccnc(N)n4)c(N)n3)CC1)C2 [Compound 134],8.85,8.30,–
"COCC#Cc1ccc2c(c1)[C@@H](N)C1(CCN(c3cc(=O)n(-c4ccc(F)c(OC)c4Cl)c(C)n3)CC1)C2 (atropisomer, axis not shown) [Compound 164]",7.38,–,6.81
"C#Cc1ccc2c(c1)[C@@H](N)C1(CCN(c3cc(=O)n(-c4ccc(C#N)c(Cl)c4Cl)c(C)n3)CC1)C2 (atropisomer, axis not shown) [Compound 192]",< 6.00,–,< 6.00
Cc1nc(N2CCC3(CC2)Cc2ccc(C#CCN(C)C)cc2[C@H]3N)n2ccnc2c1Sc1ccnc(N)c1Cl [Compound 75],8.70,7.34,–
C#Cc1ccc2c(c1)[C@@H](N)C1(CCN(c3cc(=O)n(-c4ccc(F)c(F)c4)c(C)n3)CC1)C2 [Compound 15],8.10,7.06,–
C#Cc1ccc2c(c1)CC1(CCN(c3nc(N)c(Sc4ccnc(N)c4Cl)c(=O)n3C)CC1)[C@@H]2N [Compound 5],8.70,7.64,–

# More lines, in order of rising pIC50 [1], values ahead:
pIC50 [1],"pIC50 ([2]; Homo sapiens, MIA PaCa-2, 2 h)",pIC50 ([2]; 2 hours),Structure (SMILES)
7.36,–,6.35,"CNC(=O)C#Cc1ccc2c(c1)[C@@H](N)C1(CCN(c3cc(=O)n(-c4cccc(OC)c4Cl)c(C)n3)CC1)C2 (atropisomer, axis not shown) [Compound 181]"
7.59,6.41,–,C#Cc1ccc2c(c1)[C@@H](N)C1(CCN(c3cc(=O)n(-c4cc(F)cc(F)c4)c(C)n3)CC1)C2 [Compound 55]
7.92,7.28,–,"C#Cc1ccc2c(c1)CC1(CCN(c3cc(=O)n(-c4cccc(Cl)c4Cl)c(C)n3)CC1)[C@@H]2N (atropisomer, axis not shown) [Compound 20]"
8.30,7.26,–,COCC#Cc1cccc2c1CC1(CCN(c3cc(=O)n(-c4cccc(Cl)c4Cl)c(C)n3)CC1)[C@@H]2N [Compound 96]
8.30,7.43,–,Cc1nc(N2CCC3(CC2)Cc2ccc(C#CCOC(C)(C)C)cc2[C@H]3N)cc(=O)n1-c1cccc(Cl)c1Cl [Compound 31]
8.70,7.40,–,COCCSc1ccc2c(c1)[C@@H](N)C1(CCN(c3cc(=O)n(-c4cccc(Cl)c4Cl)c(C)n3)CC1)C2 [Compound 99]
8.70,6.85,–,Cc1nc(N2CCC3(CC2)Cc2ccc(C#CCN(C)C)cc2[C@H]3N)cc(=O)n1-c1ccc(F)c(Cl)c1Cl [Compound 70]
8.70,8.10,–,COCC#Cc1ccc2c(c1)[C@@H](N)C1(CCN(c3cc(=O)n(-c4cccc(Cl)c4Cl)c(C)n3)CC1)C2 [Compound 30]
8.70,7.92,–,COCC#Cc1ccc2c(c1)[C@@H](N)C1(CCN(c3ncc(Sc4ccnc(N)n4)c4nccn34)CC1)C2 [Compound 100]
8.70,–,7.22,"C#Cc1ccc2c(c1)[C@@H](N)C1(CCN(c3cc(=O)n(-c4cccc(Cl)c4F)c(C)n3)CC1)C2 (atropisomer, axis not shown) [Compound 65]"
9.00,7.22,–,CC#Cc1ccc2c(c1)[C@@H](N)C1(CCN(c3cc(=O)n(-c4cccc(Cl)c4Cl)c(C)n3)CC1)C2 [Compound 79]
9.30,8.05,–,Nc1nccc(Sc2cnc(N3CCC4(CC3)Cc3ccc(C#CC(=O)N5CCC5)cc3[C@H]4N)cn2)c1Cl [Compound 303]
